Assay results from article PMC12697895, “Vinburnine Sensitizes Radiotherapy Efficacy in Nasopharyngeal Carcinoma by Triggering Pyroptosis and Immune Responses via Activation of EDAR‐NFκB Pathway” (Advanced Science, 2025).

Target: T1, EDAR (endogenous, SUNE1 cells) (Homo sapiens, UniProt Q9UNE0)
T1 construct: endogenous protein in SUNE1 cells, detected by Western blot
T1 sequence (Q9UNE0 27-448): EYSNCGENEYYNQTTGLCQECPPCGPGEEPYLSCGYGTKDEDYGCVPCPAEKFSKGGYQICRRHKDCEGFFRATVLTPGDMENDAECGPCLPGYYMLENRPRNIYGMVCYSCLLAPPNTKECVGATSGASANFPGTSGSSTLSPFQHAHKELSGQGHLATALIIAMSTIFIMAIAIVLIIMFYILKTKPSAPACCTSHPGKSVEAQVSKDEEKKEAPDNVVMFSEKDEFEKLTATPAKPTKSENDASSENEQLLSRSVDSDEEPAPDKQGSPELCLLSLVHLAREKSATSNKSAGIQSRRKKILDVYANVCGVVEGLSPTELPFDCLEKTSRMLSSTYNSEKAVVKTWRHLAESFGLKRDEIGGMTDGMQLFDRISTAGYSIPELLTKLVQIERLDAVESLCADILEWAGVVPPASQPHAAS
Assay: CETSA (Western blot)
Format: cell-based
Details: 10 µM vinburnine, intact SUNE1 cells, 12 h; six temperatures, 10 min

SMILES: CC[C@]12CCCN3CCc4c(n(c5ccccc45)C(=O)C1)[C@@H]32 [vinburnine]
- CETSA (Western blot): EDAR was more stable in vinburnine‐pretreated samples than in control samples at various temperatures
